Key:
Format in all cases: cell-based, human
[1] = test system: HCT-8 cells; assay: LPA effect on apoptosis (Apo-One Caspase 3/7)
Method: The effect of LPA on cell proliferation (Cell TiterGlo assay, Promega) and induction of apoptosis (Apo-One Caspase 3/7 assay, Promega) was measured in the presence and absence of serum. Cell-titer Glo is an assay that quantitates ATP as a measurement of the number of viable cells in a culture. The assay utilizes a luciferase-based luminescent signal. The Apo-One assay utilizes a profluorescent caspase 3/7 consensus substrate to measure the activation of caspase in the sample. The experiments were conducted in serum-free media as it is known that serum contains high concentrations of LPA (of the order of 10-30 uM). Briefly, cells were plated in 96-well plates at a density of 20,000 cells/well. After 24 h the serum-containing media was removed from the cells and replaced with either serum-containing or serum-free media. After 24 h LPA, at concentrations from 1-100 μM was added to the cells. 24 h later the induction of apoptosis and the level of cellular proliferation was measured using the Cell titer-glo or Caspase 3/7 Apo-One assay kits commercially available from Promega.

[2] = test system: Shc in HCT-8 cells; assay: Shc activation, phospho-specific antibody; details: 10 uM
Method: (§1) FIGS. 25A-C. LPA (10 uM) activation of Shc (A), paxillin (B) and SHP-2(C) in HCT-8 cell lysates. Phospho-specific antibodies were used to detect the activated proteins.
(§2) Many of the growth and survival signaling pathways of cancer cells have been identified. […] The protein She is an adaptor protein and the protein phosphatase SHP-2 are known to link the activation of multiple growth factor receptors to their downstream signaling pathways in cancer cells (For review see Yart et al. (2003) Current Cancer Drug Targets 3:177-192). These proteins are involved in mitogenic signaling by linking growth stimuli to the Ras-mitogen-activated protein kinase cascade and the PI3K survival pathway. […] Additionally, paxillin is a scaffold molecule intricately involved in the regulation of focal adhesions in cancer cells. It is therefore involved in the regulation of cell spreading and motility and is controlled by a multitude of signaling moieties including growth factors, and their downstream signaling molecules. Paxillin recruits these signaling components into specific cell compartments known as focal adhesions (For review, see Schaller (2001) Oncogene 20:6459-72). […] By treating HCT-8 cells with LPA (10 uM), the effect of LPA on the phosphorylation of paxillin was measured using activation state specific antibodies ([…]).

[3] = test system: paxillin in HCT-8 cells; assay: Paxillin phosphorylation, activation state specific antibodies; details: 10 uM
Method: as §1, §2

In the case of lysophosphatidic acid [LPA], the apoptosis ([1]; presence of 10% FCS) is reported as “no statistically significant effects”, the “apoptosis induced through serum starving” value ([1]; serum free conditions, LPA 1-100 μM, 24 h) is reported as “reversed apoptosis” and the “phosphorylation of Shc” value [2] is reported as “induced the phosphorylation”. The phosphorylated paxillin [3] was “highly significant increase in phosphorylated paxillin”.

Reference: patent US7879566B2, “Methods for the identification of modulators of OSGPR114 or OSGPR78 activity, and their use in the treatment of disease” (OSI Pharmaceuticals, Inc., priority 2003, dated 2011)
